Results as given in patent publication US6399568B1, “Cyclic tetrapeptide derivatives and medicinal use thereof” (Japan Energy Corporation, priority 1997, dated 2002).
Read-outs that look alike come from different tables or passages of the source. Non-standard residues stand in square brackets, D forms with d. Residues, ends and D or L forms follow the SMILES beside them. *: point of attachment. Aoe = N[C@@H](CCCCCC(=O)[C@@H]1CO1)C(=O)O; Asu = N[C@@H](CCCCCC(=O)O)C(=O)O; dPip = O=C(O)[C@H]1CCCCN1; Boc = CC(C)(C)OC(=O)*; NHOH = ON*

Columns and labels:
B16/BL6 cells = assay: MHC class-I molecule expression promoting activity; type: cell-based, mouse; settings: for conc. for 2-fold expression (nM) mean: mean of a plurality of assays; for conc. for 2-fold expression (nM) mean / Twice Promoting Concentration Cx2: 72 hours; for MHC class-I molecule expression promoting action: FIGS. 3 and 4, dependence on concentration of addition; for Twice Promoting Concentration Cx2: concentration at which MHC class-I expression is twice that without addition
Protocol: The cancer cells used were mouse melanoma cells, B16/BL6 cells, provided by, the National Cancer Institute, U.S.A. Said cells were cultivated in MEM media supplemented with 10% FBS at 37° C. in the presence of 5% carbon dioxide in an humidified incubator.
A compound to be tested was preliminarily dissolved in dimethyl sulfoxide (DMSO) and adjusted to a concentration of 100 mM or 10 mM (source solution).
Said B16/BL6 cells were inoculated on 96 well microplate at a cell density of 5000 cells per well, each well containing 200 μl of said medium. […] Thereafter, each well was once washed with PBS (phosphate buffered saline) and floating cells and the medium were removed. Then, the well was treated with 0.1% glutaraldehyde solution for 3 minutes to fix the cells.
The amount of MHC class-I molecule expressed on the surface of the fixed cells was measured by the following method. Anti-H-2K^bD^bD^d antibody, which is an antibody against mouse MHC classI molecule (commercially available from Meiji Milk Co., Ltd), was used as a primary antibody, biotinylated anti-mouse IgG+M (commercially available from Chemicon) was used as a secondary antibody, and streptavidin-β-galactosidase conjugate (commercially available from BRL) was reacted as a labelling enzyme. The amount of the thus labelled enzyme β-galactosidase was measured in a microplate reader by recording the fluorescent intensity (excitation: 365 nm, fluorescence: 450 nm) derived from the enzymaticreaction product using 4-methylumbelliferyl-β-D-galactoside (commercially available from Nacalai Tesque) as a substrate. […] The value obtained by subtracting said background level from the, actually measured value (an apparent value including the background level) was the true measurement reflecting the amount of expressed MHC class-I molecule.
A group without the addition of any compound to be tested was used as a reference group and the measurement of MHC class-I molecule expressed in said group was used as a standard value. The amount of MHC class-I molecule expressed at a concentration of addition of each test compound is shown as a relative amount, said standard value taken as one (1). For each compound to be tested, various concentrations of addition were selected to investigate the dependency of MHC class-I molecule expression promoting action on the concentration of addition.

[1] = biological target: Mouse histone deacetylase; type: biochemical
Protocol: In an enzyme system using a radio-labelled acetylated histone as a substrate, histone deacetylase enzyme inhibiting activity was evaluated. The basic conditions were in accordance with the method of Yoshida et al. (J. Biol. Chem., 265, 17174-17179, 1990).
Mouse histone deacetylase to be used was partially purified from FM3A cells. Cells were suspended in HDA buffer (15 mM potassium phosphate, 5% glycerol, 0.2 mM EDTA, pH 7.5), homogenized and centrifuged (35000×g, 10 min) to collect the nuclei which in turn were homogenized in the same buffer containing 1 M (NH4)2SO4. After ultrasonic disruption and centrifugation, the concentration of (NH4)2SO4 in the supernatant was increased to 3.5 M to precipitate deacetylase enzyme proteins. This precipitate was redissolved in HDA buffer, dialyzed against HDA buffer, applied to DEAE-cellulose column and eluted in NaCl gradient. Active fractions were used as a histone deacetylase enzyme solution.
As a substrate, [^3H]acetyl histone was used. In a culture solution of FM3A cells in the presence of 5 mM sodium n-butyrate, [^3H]acetate was added, followed by incubation for 30 minutes to radio-label the histone. The histone was prepared in a conventional manner and used as a substrate solution.
An assay was performed by adding a compound to be tested at a given concentration while using a no-addition control group, and by incubating the substrate solution and the enzyme solution at 37° C. for 10 minutes (reaction volume, 100 μl). The enzyme reaction was stopped by adding 10 μl of concentrated hydrochloric acid and the excised [^3H]acetate was extracted with ethyl acetate for radioactivity measurement. The inhibiting activity was expressed by a concentration at which the enzyme activity in the control group was inhibited by 50% (50% inhibiting concentration).

[2] = system: mouse malignant melanoma B16 cell line; assay: Cell proliferation inhibition (72 hours); type: cell-based; settings: read-out: 50% proliferation inhibiting concentration B16 (nM) mean
Source text: (§1) In order to verify the action of the cyclic tetrapeptide derivative according to the present invention in inhibiting cell proliferation in cancerized cells, the action on the proliferation of the aforementioned B16/BL6 cells was investigated. The evaluation of cell proliferation rates was done utilizing a commercially available measuring kit, specifically, from Promega under the trade name CellTiter 96 Aqueous Non-Radioactive Proliferation Assay Kit. In the measuring kit, the amount of products through reduction of a reagent tetrazolium compound (3-(4,5-dimethylthiazol-2-yl)-5-(3-carboxymethoxyphenyl)-2-(4-sulfophenyl)-2H-tetrazolium, inner salt; MTS) by viable animal cells is determined by detecting spectrophotometrically the color generated from the products. Since the amount of products is proportional to the amount of viable cells, this kit is utilized to evaluate the amount of viable cells.
(§2) According to the procedure of Test Example 1, B16/BL6 cells are inoculated in a 96 well microplate and cultured for 24 hours. Then, 10 μl of a solution of the source solution of a compound to be tested which has been diluted to a predetermined amount per well is added. Thereafter, culture is continued for additional 48 hours and 20 μl of a reagent solution in the aforementioned CellTiter 96 Aqueous Non-Radioactive Proliferation Assay Kit is then added. After incubation is continued at 37° C. for 1 hour, the amount of color generation is measured as an absorbance at 490 n musing a microplate reader.
(§3) The amount of cell proliferation of a group to which a compound to be tested is added is expressed in a relative value as compared to the standard cell proliferation (100%) in a control group to which no compound to be tested is added. For each compound tested, the amounts of cell proliferation were measured at different concentrations of addition and the dependence of the quantitative cell proliferation on the concentration of addition was investigated. From the results, a concentration of addition at which the amount of cell proliferation was inhibited by 50% relative to the amount of cell proliferation in the control group without addition was determined.
(§4) The test method was in accordance with the above-mentioned procedure, except that the period of incubation after the addition of a compound was 72 hours.
(§5) As illustrative examples, results are shown for an evaluation using mouse malignant melanoma B16/BL6 and B16 cell lines; leukemia L1210 cell line, colon cancer Colon26 cell line, and liver cancer MH134 cell line as cancer cells. For the cell proliferation inhibiting action of each compound tested for these cancer cells, 50% proliferation inhibiting concentrations are shown in Table 4.

[3] = system: mouse malignant melanoma B16/BL6 cell line; type: cell-based; settings: 72 hours; read-out: 50% proliferation inhibiting concentration B16/BL6 (nM) mean
Source text: as §1
According to the procedure of Test Example 1, B16/BL6 cells are inoculated in a 96 well microplate and cultured for 24 hours. […] Thereafter, culture is continued for additional 48 hours and 20 μl of a reagent solution in the aforementioned CellTiter 96 Aqueous Non-Radioactive Proliferation Assay Kit is then added. After incubation is continued at 37° C. for 1 hour, the amount of color generation is measured as an absorbance at 490 n musing a microplate reader.
The amount of cell proliferation of a group to which a compound to be tested is added is expressed in a relative value as compared to the standard cell proliferation (100%) in a control group to which no compound to be tested is added. For each compound tested, the amounts of cell proliferation were measured at different concentrations of addition and the dependence of the quantitative cell proliferation on the concentration of addition was investigated.
as §4

[4] = system: colon cancer Colon26 cell line; assay: Cell proliferation inhibition (72 hours); type: cell-based, mouse; settings: read-out: 50% proliferation inhibiting concentration Colon 26 (nM) mean
Source text: as §1, §2, §3, §4, §5

leukemia L1210 cell line = assay: Cell proliferation inhibition (72 hours); type: cell-based, mouse; settings: read-out: 50% proliferation inhibiting concentration L1210 (nM) mean
Source text: as §1, §2, §3, §4, §5

[5] = system: liver cancer MH134 cell line; assay: Cell proliferation inhibition (72 hours); type: cell-based, mouse; settings: read-out: 50% proliferation inhibiting concentration MH134 (nM) mean
Source text: as §1, §2, §3, §4, §5

histone deacetylase = assay: Histone deacetylase enzyme inhibiting activity, synthetic peptide substrate; type: biochemical, mouse; settings: enzyme from B16/BL6 cells; [3H]acetylated histone H4 peptide; 37° C. 3 hours
Protocol: The preparation of histone deacetylase was performed essentially according to the method of Yoshida et al. (J. Biol. Chem., 265,17174-17179, 1990). The enzyme to be used was partially purified from B16/BL6 cells. The cells were suspended in HDA buffer (15 mM potassium phosphate, 5% glycerol, 0.2 mM EDTA, […], pH 7.5), homogenized and centrifuged (2500×g, 10 min) to collect the nuclei, which in turn were homogenized in the same buffer containing 1 M (NH4)2SO4. After ultrasonic disruption and centrifugation, the concentration of (NH4)2SO4 in the collected supernatant was increased to 3.5 M to precipitate histone deacetylase. This precipitate was redissolved in HDA buffer, subjected to gel filtration to replace the solvent with HDA buffer, and used as a crude histone deacetylase enzyme solution.
As a substrate, a synthetic substrate peptide, [^3H]acetylated histone H4 peptide was used. This [^3H]acetylated histone H4 peptide was obtained by synthesizing the N-terminal peptide of histone H4; […] (the C-terminal being cysteine) and radio-acetylating with ^3H -acetic anhydride.
An assay was performed by incubating the synthetic substrate solution and the enzyme solution at 37° C. for 3 hours in the presence of a compound to be tested (reaction volume, 100 μl). The reaction was stopped by adding 25 μl of 1 M HCl and 0.2 M acetic acid and [^3H]acetate excised by the enzyme reaction was extracted with ethyl acetate for radioactivity measurement. As a control group, the same procedure was repeated without addition of any test compound to the reaction system. The inhibiting activity was expressed by a concentration at which the histone deacetylase enzyme activity in the control group was inhibited by 50% (50% inhibiting concentration).

[6] = enzyme from FM3A cells, [3H]acetyl histone, 37° C. 10 minutes

| SMILES | conc. for 2-fold expression (nM) mean (B16/BL6 cells) | IC50 [1, 6] | IC50 [2] | IC50 [3] | IC50 [4] | IC50 (leukemia L1210 cell line) | IC50 [5] | MHC class-I molecule expression promoting action (B16/BL6 cells) | Twice Promoting Concentration Cx2 (B16/BL6 cells) | IC50 (histone deacetylase) | IC50 [1] | MHC class-I molecule expression promoting activity (B16/BL6 cells; allowed to act on animal cells (summary statement)) |
| --- | --- | --- | --- | --- | --- | --- | --- | --- | --- | --- | --- | --- |
| CC(C)(C)OC(=O)NCCCC[C@@H]1NC(=O)[C@H](CCCCCC(=O)NO)NC(=O)[C@H]2CCCN2C(=O)[C@H](Cc2ccccc2)NC1=O [HDA-32, cyclo(-L-Asu(NHOH)-L-Lys(Boc)-L-Phe-D-Pro-)] (cyclo([Asu](NHOH)K(Boc)F[dP])) | 773 nM | 4.95 nM | – | – | – | – | – | – | – | – | – | – |
| C[C@@H]1NC(=O)[C@H]2CCCN2C(=O)[C@H](CCCCCC(=O)NO)NC(=O)[C@@H](C)NC1=O [HDA-13, cyclo(-L-Asu(NHOH)-D-Pro-L-Ala-D-Ala-)] (cyclo(A[dA][Asu](NHOH)[dP])) | 406 nM | – | 15400 nM | 866 nM | 11000 nM | 2770 nM | 7920 nM | – | – | – | – | – |
| O=C(CCCC[C@@H]1NC(=O)[C@H]2CCCN2C(=O)[C@H](Cc2ccccc2)NC(=O)[C@H](Cc2ccccc2)NC1=O)NO [HDA-18, cyclo(-Api(NHOH)-Phe-Phe-D-Pro-)] | 10900 nM | 390 nM | > 100000 nM | 59300 nM | > 100000 nM | > 100000 nM | > 100000 nM | exhibited MHC class-I molecule expression promoting action | 11.6 µM | 150 nM | – | – |
| O=C(CCCCCC[C@@H]1NC(=O)[C@H]2CCCN2C(=O)[C@H](Cc2ccccc2)NC(=O)[C@H](Cc2ccccc2)NC1=O)NO [HDA-17, cyclo(-Aaz(NHOH)-Phe-Phe-D-Pro-)] | 990 nM | 19.8 nM | 23500 nM | 1260 nM | 29300 nM | 7380 nM | 19900 nM | exhibited MHC class-I molecule expression promoting action | 1.12 µM | 24.7 nM | – | – |
| CC(C)C[C@@H]1NC(=O)[C@@H](Cc2ccccc2)NC(=O)[C@H](CCCCCC(=O)NO)NC(=O)[C@H]2CCCN2C1=O [HDA-29, cyclo(-L-Asu(NHOH)-D-Phe-L-Leu-D-Pro-)] (cyclo([Asu](NHOH)[dF]L[dP])) | 5.41 nM | 1.59 nM | 293 nM | 15.8 nM | 198 nM | 43.8 nM | 176 nM | – | – | – | – | – |
| O=C(CCCCC[C@@H]1NC(=O)[C@H]2CCCN2C(=O)[C@H](Cc2ccccc2)NC(=O)[C@@H](Cc2ccccc2)NC1=O)NO [HDA-27, cyclo(-L-Asu(NHOH)-D-Phe-L-Phe-D-Pro-)] (cyclo([Asu](NHOH)[dF]F[dP])) | 3.01 nM | – | 309 nM | 18 nM | 277 nM | 53 nM | 236 nM | – | – | 3.44 nM | 1.45 nM | – |
| CC(=O)NCCCC[C@@H]1NC(=O)[C@H]2CCCN2C(=O)[C@H](Cc2ccccc2)NC(=O)[C@H](Cc2ccccc2)NC1=O [HDA-6, cyclo(-L-Lys(Ac)-L-Phe-L-Phe-D-Pro-)] (cyclo(FF[dP]K(Ac))) | 240000 nM | 27800 nM | – | – | – | – | – | – | – | – | – | – |
| O=C1N[C@@H](Cc2ccccc2)C(=O)N2CCCC[C@@H]2C(=O)N[C@@H](CCCCCC(=O)[C@@H]2CO2)C(=O)N[C@H]1Cc1ccccc1 [trapoxin A, reference compound] (cyclo([Aoe]FF[dPip])) | 3.59 nM | 0.47 nM | – | – | – | – | – | – | – | – | – | exhibit the MHC class-I molecule expression promoting activity |
| CC(C)C[C@@H]1NC(=O)[C@@H](Cc2ccccc2)NC(=O)[C@H](CCCCCC(=O)NO)NC(=O)[C@@H]2CCCN2C1=O [HDA-28, cyclo(-L-Asu(NHOH)-D-Phe-L-Leu-L-Pro-)] (cyclo([Asu](NHOH)[dF]LP)) | 80.2 nM | 6.04 nM | 3820 nM | 470 nM | 7370 nM | 1330 nM | 4830 nM | – | – | – | – | – |
| CCCC(=O)[O-].[Na+] [Sodium n-butyrate, reference compound] | – | – | – | – | – | – | – | – | – | – | 119000 nM | – |
